Tests used:
aurora A = target: T1, aurora A (Homo sapiens, UniProt O14965); test: Kinase assay aurora A; type: biochemical; details: Ki calculated (Cheng-Prusoff) from experimentally determined IC50 and Km,ATP; read-out: Kinase Inhibition Ki Aurora A
T1 sequence (O14965 1-403): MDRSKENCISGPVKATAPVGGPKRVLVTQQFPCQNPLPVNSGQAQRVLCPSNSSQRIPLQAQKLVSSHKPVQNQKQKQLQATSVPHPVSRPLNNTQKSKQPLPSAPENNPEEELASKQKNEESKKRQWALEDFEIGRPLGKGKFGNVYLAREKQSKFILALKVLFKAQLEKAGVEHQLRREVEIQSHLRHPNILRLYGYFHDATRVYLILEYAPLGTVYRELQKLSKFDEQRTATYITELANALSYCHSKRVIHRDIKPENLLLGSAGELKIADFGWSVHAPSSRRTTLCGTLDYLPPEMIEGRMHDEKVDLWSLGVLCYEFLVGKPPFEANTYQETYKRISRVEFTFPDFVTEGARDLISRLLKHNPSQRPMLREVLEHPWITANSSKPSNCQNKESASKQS
Method: The compounds from the examples above were investigated for their ability to inhibit the enzymatic activity of various protein kinases. This was achieved by measurement of incorporation of radioactive phosphate from ATP into appropriate polypeptide substrates. Recombinant protein kinases and kinase complexes were produced or obtained commercially. Assays were performed using 96-well plates and appropriate assay buffers (typically 25 mM β-glycerophosphate, 20 mM MOPS, 5 mM EGTA, 1 mM DTT, 1 mM […], pH 7.4), into which were added 2-4 μg of active enzyme with appropriate substrates. […] Reactions were stopped on ice, followed by filtration through p81 filterplates or GF/C filterplates (Whatman Polyfiltronics, Kent, UK). After washing 3 times with 75 mM aq orthophosphoric acid, plates were dried, scintillant added and incorporated radioactivity measured in a scintillation counter (TopCount, Packard Instruments, Pangbourne, Berks, UK). Compounds for kinase assay were made up as 10 mM stocks in DMSO and diluted into 10% DMSO in assay buffer.

CDK4/cyclin D1 = CDK4/cyclin D1 (Homo sapiens, UniProt P11802); test: Kinase assay CDK4/cyclin D1; type: biochemical; details: Ki calculated (Cheng-Prusoff) from experimentally determined IC50 and Km,ATP; read-out: Kinase Inhibition Ki CDK4 - cyclin D1
Sequence of CDK4/cyclin D1 (P11802 whole entry, species assumed): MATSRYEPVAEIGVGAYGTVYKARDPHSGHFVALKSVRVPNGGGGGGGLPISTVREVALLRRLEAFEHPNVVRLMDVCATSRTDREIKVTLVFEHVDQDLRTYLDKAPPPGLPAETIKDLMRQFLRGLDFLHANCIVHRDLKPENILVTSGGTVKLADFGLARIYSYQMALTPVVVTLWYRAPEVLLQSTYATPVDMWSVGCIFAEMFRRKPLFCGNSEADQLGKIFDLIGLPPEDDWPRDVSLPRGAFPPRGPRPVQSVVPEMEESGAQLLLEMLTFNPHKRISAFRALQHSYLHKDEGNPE
Sequence of CDK4/cyclin D1 (P24385 whole entry partner, species assumed): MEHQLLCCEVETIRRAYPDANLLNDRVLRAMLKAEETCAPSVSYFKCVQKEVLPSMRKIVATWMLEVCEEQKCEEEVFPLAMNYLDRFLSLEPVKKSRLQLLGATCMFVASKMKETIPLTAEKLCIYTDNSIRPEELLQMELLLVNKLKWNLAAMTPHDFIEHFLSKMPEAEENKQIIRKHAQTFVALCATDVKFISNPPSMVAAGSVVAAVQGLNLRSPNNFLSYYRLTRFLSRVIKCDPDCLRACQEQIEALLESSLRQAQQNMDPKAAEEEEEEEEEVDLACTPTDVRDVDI
Outline: (§1)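 Radiometric filter assays used recombinant kinases or complexes (2-4 μg) with appropriate polypeptide substrates in pH 7.4 β-glycerophosphate/MOPS buffer. Reactions were started with 15 mM MgCl2 and 100 μM ATP containing [γ-32P]-ATP and run at 30° C. Phosphate incorporated into substrate was counted by scintillation after washing.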

CDK2/cyclin E = CDK2/cyclin E (Homo sapiens, UniProt P24941); test: Kinase assay CDK2/cyclin E; type: biochemical; details: Ki calculated (Cheng-Prusoff) from experimentally determined IC50 and Km,ATP; read-out: Kinase Inhibition Ki CDK2 - cyclin E
Outline: (§2)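 Radiometric assays measured transfer of radioactive phosphate from ATP onto polypeptide substrates, using 2-4 μg recombinant active enzyme in buffer typically containing 25 mM β-glycerophosphate, 20 mM MOPS, 5 mM EGTA, 1 mM DTT and 1 mM Na3VO3 at pH 7.4. Reactions were stopped on ice, filtered on P81 or GF/C plates and washed with orthophosphoric acid. Incorporated radioactivity was scintillation-counted.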

CDK7/cyclin H = CDK7/cyclin H (Homo sapiens, UniProt P50613); test: Kinase assay CDK7/cyclin H; type: biochemical; details: Ki calculated (Cheng-Prusoff) from experimentally determined IC50 and Km,ATP; read-out: Kinase Inhibition Ki CDK7 - cyclin H
Sequence of CDK7/cyclin H (P50613 whole entry, species assumed): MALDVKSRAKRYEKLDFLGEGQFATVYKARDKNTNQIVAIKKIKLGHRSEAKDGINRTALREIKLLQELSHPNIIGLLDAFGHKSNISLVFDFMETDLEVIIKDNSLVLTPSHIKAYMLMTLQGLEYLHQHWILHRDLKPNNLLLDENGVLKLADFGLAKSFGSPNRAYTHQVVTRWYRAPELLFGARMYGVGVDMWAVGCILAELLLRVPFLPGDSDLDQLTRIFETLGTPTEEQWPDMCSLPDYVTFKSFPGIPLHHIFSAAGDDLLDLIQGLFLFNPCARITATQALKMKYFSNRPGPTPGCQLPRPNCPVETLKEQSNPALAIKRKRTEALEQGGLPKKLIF
Sequence of CDK7/cyclin H (P51946 whole entry partner, species assumed): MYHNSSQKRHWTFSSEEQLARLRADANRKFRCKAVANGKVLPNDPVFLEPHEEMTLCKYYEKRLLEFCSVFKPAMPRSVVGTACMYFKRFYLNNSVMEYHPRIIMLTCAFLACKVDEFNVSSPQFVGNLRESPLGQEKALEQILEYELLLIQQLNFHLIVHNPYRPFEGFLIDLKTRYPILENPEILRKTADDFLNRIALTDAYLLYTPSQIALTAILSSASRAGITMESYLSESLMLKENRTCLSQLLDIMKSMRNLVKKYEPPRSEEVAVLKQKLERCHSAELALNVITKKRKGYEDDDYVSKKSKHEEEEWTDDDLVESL
Outline: as §1

HIV-1 = HIV-1 in human PBMCs, seven days following infection
Method: Representative compounds of the present invention were tested for antiviral activity against HIV-1 in human peripheral blood mononuclear cells (PBMCs) using the clinical paediatric HIV strains RoJo or WeJo. PBMCs were cultured under conditions which promote cell survival and HIV replication.
Fresh PBMCs, seronegative for HIV and HBV, were isolated from screened donors (Interstate Blood Bank, Inc. Memphis, Tenn.). Cells were pelleted/washed 2-3 times by low speed centrifugation and re-suspension in PBS to remove contaminating platelets. […] Banded PBMCs were gently aspirated from the resulting interface and subsequently washed with PBS by low speed centrifugation. […] The cells were allowed to incubate at 37° C. […] IL-2 is included in the culture medium to maintain the cell division initiated by the PHA mitogenic stimulation. PBMCs were maintained in this with bi-weekly medium changes until used in the assay protocol. Cells were kept in culture for a maximum of two weeks before being deemed too old for use in assays and discarded. Monocytes were depleted from the culture as the result of adherence to the tissue culture flask.
For the standard PBMC assay, PHA-P stimulated cells from at least two normal donors were pooled, diluted and plated in the interior wells of a 96-well round bottom microplate. Pooling of mononuclear cells from more than one donor was used to minimise the variability observed between individual donors, which results from quantitative and qualitative differences in HIV infection and overall response to the PHA and IL-2 of primary lymphocyte populations. Each plate contained virus/cell control wells (cells plus virus), experimental wells (drug plus cells plus virus) and compound control wells (drug plus media without cells, necessary for MTS monitoring of cytotoxicity). Since HIV-1 is not cytopathic to PBMCs, this allows the use of the same assay plate for both antiviral activity and cytotoxicity measurements. Test drug dilutions were prepared in microtiter tubes and each concentration was placed in appropriate wells using the standard format. A predetermined dilution of virus stock was placed in each test well (final MOI≅0.1). The PBMC cultures were maintained for seven days following infection at 37° C., 5% CO2 After this period, cell-free supernatant samples were collected for analysis of reverse transcriptase activity and/or HIV p24 content. Following removal of supernatant samples, compound cytotoxicity was measured by addition of MTS to the plates for determination of cell viability. Wells were also examined microscopically and any abnormalities were noted.
Tritiated thymidine triphosphate (^3H-TTP, 80 Ci/mmol, NEN) was received in 1:1 dH2O:Ethanol at 1 mCi/mL. Poly rA:oligo dT template:primer (Pharmacia) was prepared as a stock solution, followed by aliquoting and storage at −20° C. The RT reaction buffer was prepared fresh on a daily basis. The final reaction mixture was prepared by combining ^3H-TTP, dH2O, poly rA:oligo dT stock and reaction buffer. This reaction mixture was placed in a round bottom microtiter plate and supernatant containing virus was added and mixed. The plate was incubated at 37° C. for 60 minutes. Following incubation, the reaction volume was spotted onto DE81 filter-mats (Wallac), in a sodium phosphate buffer or 2×SSC (Life Technologies). Next they were washed in distilled water, in 70% ethanol, and then dried. Incorporated radioactivity (counts per minute, CPM) was quantified using standard liquid scintillation techniques.

CDK1/cyclin B = CDK1/cyclin B (Homo sapiens, UniProt P06493); test: Kinase assay CDK1/cyclin B (radioactive phosphate incorporation); type: biochemical; details: Ki calculated (Cheng-Prusoff) from experimentally determined IC50 and Km,ATP; read-out: Kinase Inhibition Ki CDK1 - cyclin B
Sequence of CDK1/cyclin B (P06493 whole entry, species assumed): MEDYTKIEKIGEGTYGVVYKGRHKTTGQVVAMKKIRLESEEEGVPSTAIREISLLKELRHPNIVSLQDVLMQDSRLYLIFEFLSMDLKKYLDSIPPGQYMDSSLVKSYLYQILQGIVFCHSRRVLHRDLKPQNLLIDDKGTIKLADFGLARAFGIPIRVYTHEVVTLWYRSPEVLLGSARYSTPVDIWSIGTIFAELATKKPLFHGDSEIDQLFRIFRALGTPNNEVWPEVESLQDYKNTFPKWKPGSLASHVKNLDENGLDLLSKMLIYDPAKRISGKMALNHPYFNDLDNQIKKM
Sequence of CDK1/cyclin B (P14635 whole entry partner, species assumed): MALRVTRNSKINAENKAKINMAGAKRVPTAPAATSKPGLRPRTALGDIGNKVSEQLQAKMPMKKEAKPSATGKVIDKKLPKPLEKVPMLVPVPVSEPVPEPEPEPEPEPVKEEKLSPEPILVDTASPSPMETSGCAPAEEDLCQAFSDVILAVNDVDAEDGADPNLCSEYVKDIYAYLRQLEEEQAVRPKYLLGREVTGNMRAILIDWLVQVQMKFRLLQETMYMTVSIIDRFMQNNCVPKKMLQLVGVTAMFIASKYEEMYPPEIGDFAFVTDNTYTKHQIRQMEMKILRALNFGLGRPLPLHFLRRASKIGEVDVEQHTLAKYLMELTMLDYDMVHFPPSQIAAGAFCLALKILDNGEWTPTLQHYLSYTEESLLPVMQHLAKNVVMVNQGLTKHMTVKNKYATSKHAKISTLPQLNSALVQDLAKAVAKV
Outline: as §2

CDK2/cyclin A = CDK2/cyclin A (Homo sapiens, UniProt P24941); test: Kinase assay CDK2/cyclin A; type: biochemical; details: Ki calculated (Cheng-Prusoff) from experimentally determined IC50 and Km,ATP; read-out: Kinase Inhibition Ki CDK2 - cyclin A
Outline: as §2

CDK9/cyclin T1 = CDK9/cyclin T1 (Homo sapiens, UniProt P50750); test: Kinase assay CDK9/cyclin T1; type: biochemical; details: Ki calculated (Cheng-Prusoff) from experimentally determined IC50 and Km,ATP; read-out: Kinase Inhibition Ki CDK9 - cyclin T1
Sequence of CDK9/cyclin T1 (P50750 whole entry, species assumed): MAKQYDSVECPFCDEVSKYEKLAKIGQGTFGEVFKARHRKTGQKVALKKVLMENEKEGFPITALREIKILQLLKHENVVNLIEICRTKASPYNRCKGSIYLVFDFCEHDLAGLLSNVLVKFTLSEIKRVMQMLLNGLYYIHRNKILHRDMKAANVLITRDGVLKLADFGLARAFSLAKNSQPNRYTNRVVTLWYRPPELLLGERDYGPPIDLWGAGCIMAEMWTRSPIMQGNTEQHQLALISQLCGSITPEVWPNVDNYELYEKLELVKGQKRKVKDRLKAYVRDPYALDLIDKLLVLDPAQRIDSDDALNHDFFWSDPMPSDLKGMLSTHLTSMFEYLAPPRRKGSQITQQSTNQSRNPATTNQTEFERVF
Sequence of CDK9/cyclin T1 (O60563 whole entry partner, species assumed): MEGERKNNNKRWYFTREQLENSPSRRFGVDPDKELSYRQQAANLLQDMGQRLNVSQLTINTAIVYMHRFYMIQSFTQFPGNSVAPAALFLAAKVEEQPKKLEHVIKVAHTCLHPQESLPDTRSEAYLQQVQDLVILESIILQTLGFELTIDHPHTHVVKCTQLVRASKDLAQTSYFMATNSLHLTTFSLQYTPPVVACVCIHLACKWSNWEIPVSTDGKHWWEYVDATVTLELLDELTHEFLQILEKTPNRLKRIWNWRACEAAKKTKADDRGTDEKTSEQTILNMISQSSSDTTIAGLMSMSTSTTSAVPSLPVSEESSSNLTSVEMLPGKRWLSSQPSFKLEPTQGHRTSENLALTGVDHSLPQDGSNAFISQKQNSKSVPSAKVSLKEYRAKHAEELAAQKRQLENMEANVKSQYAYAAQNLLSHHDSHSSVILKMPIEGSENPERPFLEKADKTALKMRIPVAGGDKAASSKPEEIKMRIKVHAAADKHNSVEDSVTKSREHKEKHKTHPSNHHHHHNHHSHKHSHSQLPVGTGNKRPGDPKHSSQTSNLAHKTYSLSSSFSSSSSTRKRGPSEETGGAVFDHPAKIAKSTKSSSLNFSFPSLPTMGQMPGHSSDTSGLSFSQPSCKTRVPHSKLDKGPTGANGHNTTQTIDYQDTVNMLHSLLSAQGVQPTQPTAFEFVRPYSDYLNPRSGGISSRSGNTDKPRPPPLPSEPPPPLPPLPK
Outline: as §1

GSK3β = target: T2, GSK3β (Homo sapiens, UniProt P49841); test: GSK3β in vitro kinase assay; type: biochemical; details: recombinant human GSK3β, 100 μM ATP
T2 construct: purchased New England Biolabs
T2 sequence (P49841 whole entry): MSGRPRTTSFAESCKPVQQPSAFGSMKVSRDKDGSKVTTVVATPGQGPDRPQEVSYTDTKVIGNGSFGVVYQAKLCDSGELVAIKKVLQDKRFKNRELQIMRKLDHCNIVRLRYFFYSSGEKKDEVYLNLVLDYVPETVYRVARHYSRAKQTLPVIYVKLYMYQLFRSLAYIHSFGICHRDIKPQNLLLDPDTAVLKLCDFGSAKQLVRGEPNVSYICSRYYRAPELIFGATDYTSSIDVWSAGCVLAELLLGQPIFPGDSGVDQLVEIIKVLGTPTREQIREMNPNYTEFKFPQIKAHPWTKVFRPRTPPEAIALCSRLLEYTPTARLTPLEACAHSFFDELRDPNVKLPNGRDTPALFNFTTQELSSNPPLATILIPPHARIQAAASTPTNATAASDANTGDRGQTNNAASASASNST
Method: Both isoforms of GSK3 (α and β) are involved in the regulation of glycogen synthase activity—key enzyme in the glycogen metabolism.
A 10-point titration was set up to determine the IC50 values of selected example compounds against GSK3β. Assays were performed using 96-well microtiter plates with a final volume of 25 μL per well. Each assay contained 1.5 units of GSK3β(New England Biolabs), 200 μM CREB phosphopeptide ([…]pSYR, Alta Biosciences), 20 mM Tris HCl pH7.5, 5 mM DTT, 15 mM MgCl2 supplemented with 100 μM ATP and 0.5 μCi of [γ-^32P] ATP plus or minus inhibitor in 2% DMSO. Assays were carried out for 30 minutes at 30° C. before stopping the reaction by the addition of an equal volume of 75 mM aqueous phosphoric acid. Samples were then spotted onto a p81 filterplate (Whatman) and a vacuum was applied. Wells were washed 3 times with 200 μL of dilute aqueous phosphoric acid before the addition of 50 μL Microscint 40 per well. Incorporation of radioactivity was determined on a Topcount microplate scintillation counter (Packard).

| IC50 (GSK3β) | SMILES | Ki (aurora A) | Ki (CDK4/cyclin D1) | Ki (CDK2/cyclin E) | Ki (CDK7/cyclin H) | anti-HIV activity based on TI (therapeutic index: TC50/IC50) (HIV-1) | Ki (CDK1/cyclin B) | Ki (CDK2/cyclin A) | Ki (CDK9/cyclin T1) |
| --- | --- | --- | --- | --- | --- | --- | --- | --- | --- |
| – | Cc1c(-c2ccnc(Nc3ccc(N4CCNCC4)cc3)n2)sc(=O)n1C [Compound 38, 3,4-Dimethyl-5-[2-(4-piperazin-1-yl-phenylamino)-pyrimidin-4-yl]-3H-thiazol-2-one] | 0.088 µM | 0.05 µM | 0.18 µM | 0.038 µM | Active | 0.47 µM | 0.3 µM | 0.01 µM |
| – | CCn1c(C)c(-c2ccnc(Nc3ccc(OC)nc3)n2)sc1=O [Compound 33, 3-Ethyl-5-[2-(6-methoxy-pyridin-3-ylamino)-pyrimidin-4-yl]-4-methyl-3H-thiazol-2-one] | – | 0.035 µM | 0.05 µM | 0.023 µM | Active | 0.03 µM | 0.76 µM | 0.0024 µM |
| – | CCn1c(C)c(-c2ccnc(Nc3cccc([N+](=O)[O-])c3)n2)sc1=O [Compound 23, 3-Ethyl-4-methyl-5-[2-(3-nitro-phenylamino)-pyrimidin-4-yl]-3H-thiazol-2-one] | – | 0.87 µM | 0.016 µM | 0.0014 µM | Active | 0.29 µM | 0.062 µM | 0.0003 µM |
| – | Cc1c(-c2ccnc(Nc3cccc(C#N)c3)n2)sc(=O)n1C [Compound 16, 3-[4-(3,4-Dimethyl-2-oxo-2,3-dihydro-thiazol-5-yl)-pyrimidin-2-ylamino]-benzonitrile] | – | 0.1 µM | 0.0005 µM | 0.0068 µM | Active | 0.4 µM | 0.042 µM | 0.0019 µM |
| – | Cc1ccc(Nc2nccc(-c3sc(=O)n(C)c3C)n2)cc1C(F)(F)F [Compound 21, 3,4-Dimethyl-5-[2-(4-methyl-3-trifluoromethyl-phenylamino)-pyrimidin-4-yl]-3H-thiazol-2-one] | – | – | 0.19 µM | 0.22 µM | Active | 2.3 µM | 0.55 µM | 0.17 µM |
| – | Cc1ccc(Nc2nccc(-c3sc(=O)n(C)c3C)n2)cc1[N+](=O)[O-] [Compound 11, 3,4-Dimethyl-5-[2-(4-methyl-3-nitro-phenylamino)-pyrimidin-4-yl]-3H-thiazol-2-one] | – | 0.38 µM | 0.061 µM | 0.036 µM | Active | 0.72 µM | 0.22 µM | 0.0004 µM |
| – | Cc1c(-c2ccnc(Nc3ccc(F)cc3)n2)sc(=O)n1C [Compound 2, 5-[2-(4-Fluoro-phenylamino)-pyrimidin-4-yl]-3,4-dimethyl-3H-thiazol-2-one] | 0.35 µM | – | – | – | Active | – | – | 0.0008 µM |
| – | Cc1cc(Nc2nccc(-c3sc(=O)n(C)c3C)n2)ccc1Cl [Compound 15, 5-[2-(4-Chloro-3-methyl-phenylamino)-pyrimidin-4-yl]-3,4-dimethyl-3H-thiazol-2-one] | – | 9.6 µM | 0.58 µM | – | Active | 0.6 µM | 0.46 µM | 0.045 µM |
| 0.0178 µM | Cc1c(-c2ccnc(Nc3cccc(CNC(=O)c4ccccc4)c3)n2)sc(=O)n1C [Compound 57, N-{3-[4-(3,4-Dimethyl-2-oxo-2,3-dihydro-thiazol-5-yl)-pyrimidin-2-ylamino]-benzyl}-benzamide] | 0.16 µM | 0.021 µM | 0.052 µM | 1.3 µM | – | 0.36 µM | 0.54 µM | 0.0016 µM |
| 0.096 µM | Cc1c(-c2ccnc(Nc3ccc(N4CCN(Cc5ccccc5)CC4)cc3)n2)sc(=O)n1C [Compound 69, 5-{2-[4-(4-Benzyl-piperazin-1-yl)-phenylamino]-pyrimidin-4-yl}-3,4-dimethyl-3H-thiazol-2-one] | 0.039 µM | 0.1 µM | 0.16 µM | 0.012 µM | – | 1.7 µM | 0.95 µM | 0.021 µM |

From patent publication US7902361B2, “Pyrimidin-4-yl-3, 4-thione compounds and their use in therapy” (Cyclacel Limited, priority 2003, dated 2011)
